The results in this text go back to patent publication EP0302445B1, “A novel hypoglycemic and growth-promoting agent” (THE PROTOR CO., priority 1987, dated 1992).

For the assay, the system named is insulinase. Put plainly: insulinase inhibitory activity measurement (method of Duckworth et al.). Type of assay: biochemical. The following applies: fractions of commercial bacitracin, result in words. How it is done:
The desired fraction is believed to have a molecular weight of about 1400, approximately the same as bacitracin A or F. Their anti-insulinase and antibacterial activities can be assayed in conventional manner. For example, the insulinase inhibitory activity was measured according to the method of Duckworth, et al., Proc. Nat. Acad. Sci., 69, 3698-3702 (1972) and the anti-bacterial activity by the method of Patrick, et al., Antibiotics and Chemotherapy, 1, 133-137 (1951).
A 350 ml bed volume of CM-Sepharose in a packed column (2.8 x 56 cm) was equilibrated with 0.05M ammonium acetate, pH 4.5 One gram of commercial bacitracin dissolved in 50 ml of buffer was applied to the packed column. The material was eluted with 2 l of equilibrating buffer followed by 350 ml of 1M ammonium acetate pH 4.5 buffer. Five ml fractions were collected and absorbance measurements at 252, 280 and 290 nm were made. In addition, insulinase inhibitory activity measurements were made on each peak. […] The peaks were collected, lyophilized, weighed and dissolved in water at 5 mg/ml concentration for specific activity measurements. The material collected with the second buffer contained 5-10 % of the total weight of the applied material and 90 % of the total insulinase inhibitory capacity. The specific activity of this material was 10-12 times that of the starting commercial material.

On to bacitracin A, for which the insulinase inhibitory activity result is given as “substantially no anti-insulinase activity”. Also, the insulinase inhibitory activity entry (listed as Bacitracin A) is given as “negligible”.

For bacitracin F, the insulinase inhibitory activity entry was “substantially no anti-insulinase activity”. In addition, the insulinase inhibitory activity result (listed as Bacitracin F) is listed as “negligible”.
